Assay results taken from patent US8865626B2, “Synergistically active herbicidal agents that are compatible with cultivated plants and contain herbicides from the group of benzoylpyrazoles” (Bayer Cropscience AG, priority 2006, dated 2014).

Key:
Assay type in all cases: in vivo
[1] = system: STEME; assay: Herbicidal post-emergence action against STEME; conditions: visual rating 3 to 4 weeks after treatment
Experimental: (§1) Seeds of monocotyledonous and dicotyledonous weed and crop plants are placed into sandy loam in wood fiber pots or in plastic pots, covered with soil and cultivated in a greenhouse, including during the vegetation period outdoors outside of the greenhouse, under good growth conditions. 2-3 weeks after sowing, the test plants are treated at the one- to three-leaf stage. The test compounds, formulated as wettable powders (WP) or liquid (EC) are, in various dosages with a water application rate of 300 I/ha (converted), with added wetting agent (0.2 to 0.3%), sprayed onto the plants and the surface of the soil. 3 to 4 weeks after the treatment of the test plants, the effect of the preparations is rated visually in comparison to untreated controls (herbicidal effect in percent (%): 100% effect=plants have died, 0% effect=like control plants).
(§2) If it is additionally to be tested as to whether safeners can improve the plant compatibility of test substances in the case of crop plants, the following options are used for applying the safener: • seeds of the crop plants are, before sowing, dressed with the safener substance (the amount of safener is stated in percent, based on the weight of the seed) • before the application of the test substances, the crop plants are sprayed with the safener at a certain application rate per hectare (usually 1 day before the application of the test substances) • the safener is applied together with the test substance as a tank mix (the amount of safener is stated in g/ha or as a ratio, based on the herbicide).
(§3) By comparing the effect of the test substances on crop plants without or with safener treatment, it is possible to assess the effect of the safener substance.

[2] = system: LAMPU; assay: Herbicidal post-emergence action against LAMPU; conditions: visual rating 3 to 4 weeks after treatment
Experimental: as §1, §3

[3] = system: AVEFA; assay: Herbicidal post-emergence action against AVEFA; conditions: visual rating 3 to 4 weeks after treatment
Experimental: as §1, §3

[4] = system: MATIN; assay: Herbicidal post-emergence action against MATIN; conditions: visual rating 3 to 4 weeks after treatment
Experimental: as §1, §2, §3

[5] = system: summer wheat; assay: Post-emergence damage to crop plant (safener test)
Experimental: as §1, with “plants). […]” for “plants).”

[6] = system: VERHE; assay: Herbicidal post-emergence action against VERHE; conditions: visual rating 3 to 4 weeks after treatment
Experimental: as §1, §3

SMILES: Nc1cc(Cl)nc(C(=O)O)c1Cl [aminopyralid]
- Activity against STEME ([1]; dosage 150 g of a.i./ha): 65%

SMILES: CCOC(=O)C(Cl)Cc1cc(-n2nc(C)n(C(F)F)c2=O)c(F)cc1Cl (centres unmarked) [carfentrazone-ethyl]
- Activity against LAMPU ([2]; dosage 25 g of a.i./ha): 10%

SMILES: COCc1cnc(C2=NC(C)(C(C)C)C(=O)N2)c(C(=O)O)c1.N (centres unmarked) [imazamox-ammonium]
- Activity against AVEFA ([3]; dosage 25 g of a.i./ha): 60%

SMILES: CCOC(=O)C1=NN(c2ccc(Cl)cc2Cl)C(C)(C(=O)OCC)C1 (centres unmarked) [mefenpyr-diethyl]
- Activity against STEME ([1]; dosage 9.4 g of a.i./ha): 0%
- Activity against MATIN ([4]; dosage 9.4 g of a.i./ha): 0%

SMILES: COC(=O)c1ccc(CNS(C)(=O)=O)cc1S(=O)(=O)NC(=O)Nc1nc(OC)cc(OC)n1 [mesosulfuron-methyl]
- Damage to summer wheat ([5]; dosage 7.5 g of a.i./ha): 15%
- Activity against MATIN ([4]; dosage 7.5 g of a.i./ha): 50%

SMILES: Cc1nn(C)c(O)c1C(=O)c1ccc(C(F)(F)F)cc1S(C)(=O)=O [pyrasulfotole]
- Activity against LAMPU ([2]; dosage 12.5 g of a.i./ha): 80%
- Activity against STEME ([1]; dosage 12.5 g of a.i./ha): 60%
- Damage to summer wheat ([5]; dosage 12.5 g of a.i./ha): 20%
- Activity against AVEFA ([3]; dosage 12.5 g of a.i./ha): 40%
- Activity against MATIN ([4]; dosage 12.5 g of a.i./ha): 70%
- Activity against VERHE ([6]; dosage 12.5 g of a.i./ha): 40%

SMILES: COc1cc(OC)n2nc(NS(=O)(=O)c3c(C(F)(F)F)ccnc3OC)nc2n1 [pyroxsulam]
- Activity against VERHE ([6]; dosage 5 g of a.i./ha): 80%
